Where a SMILES comes first, the peptide text is derived from it. Bridges are numbered along the chain shown (N, C = ends). The star is where a group is joined. DOTA = O=C(O)CN1CCN(CC(=O)O)CCN(CC(=O)*)CCN(CC(=O)O)CC1; AEEA = NCCOCCOCC(=O)O
How the values were obtained:
[1] = system: S. aureus inoculation abscess / soft tissue infection; test: PET uptake in infected soft tissue (inguinal inoculation abscess, lymph node) of pigs
Text: (§1) Fifteen domestic pigs, all clinically healthy, specific pathogen-free Danish Landrace Yorkshire cross-bred female pigs aged 8–9 weeks weighing 18.3–24.5 kg, were purchased from local commercial pig farmers. After at least one week of acclimatization, the pigs fasted over-night. Then they were premedicated with s-ketamine (Pfizer, Ballerup, Denmark) and midazolam (B. Braun Medical, Frederiksberg, Denmark) intramuscularly and anesthetized with propofol (B. Braun Medical, Frederiksberg, Denmark) intravenously. Finally, they were inoculated with a well-characterized porcine strain of S. aureus S54F9 (approximately 10,000 CFU/kg body weight) into the femoral artery of the right hind limb to induce OM in that limb, as described elsewhere. […] The pigs were all treated with 30–45 µg/kg buprenorphine (Indivior, Berkshire, United Kingdom) intramuscularly thrice daily from the time before inoculation and until scanning at day 6 and 7 after inoculation. After scanning, pigs were euthanized with an overdose of pentobarbitone (Scan Vet Animal Health, Fredensborg, Denmark) while still under anesthesia. Humane endpoints were: anorexia for more than 24 h, superficial respiration, the inability to stand up, or signs of systemic infection. […] The environment was characterized by a room temperature of 20 °C, relative humidity of 51–55%, 12 h in light/12 h in dark cycles, an exchange of air at least eight times per hour. Pigs were fasted overnight before anesthesia.
(§2) The average injected activity was as median 178 MBq (range 126–253 MBq), corresponding to ~8–12 MBq/kg. The PET was performed ~72 min (60–126 min, early scan) and 139 min (118–186 min, late scan) after injection of [^68Ga]Ga-DOTA-Siglec-9 (pigs 1–3 and 12–15, Table 1).
(§3) ^18F were produced at the PET Center Aarhus using either a PETtrace 800 series cyclotron (GE Healthcare, Uppsala, Sweden) or a Cyclone 18/18 cyclotron (IBA, Louvain La Neuve, Belgium). [^18F]FDG was produced by a standard procedure applying a GE Healthcare MX Tracerlab synthesizer, Mx cassettes supplied by Rotem Industries (Arava, Israel), and chemical kits supplied by ABX GmbH (Radeberg, Germany). […] The median injected activity was 125 MBq (range 94–497 MBq), corresponding to ~5–24 MBq/kg. The PET was performed ~61 min (50–76 min) after injection of [^18F]FDG (pigs 1–15, Table 1).
(§4) The pigs were scanned at locations; Aalborg and Aarhus PET Centers. […] They were in propofol anesthesia and mechanically ventilated throughout the scan. Reflexes, pulse, oxygen saturation, and body temperature were monitored.

[2] = system: Staphylococcus aureus induced osteomyelitis (OM) lesions; test: Static PET/CT tracer uptake in S. aureus induced osteomyelitis lesions, juvenile pig model; details: for Standard uptake values (SUV) in OM lesions: static whole-body PET/CT about 1 h after i.v. tracer injection, day 6-7 after S. aureus S54F9 inoculation
Text: as §1
(§5) Osteomyelitis was verified by CT imaging, necropsy, histology, and/or bacterial cultivation.
(§6) The average injected activity was a median of 760 MBq (range 348–848 MBq) of [^68Ga]Ga-DOTA-K-A9, corresponding to ~17–46 MBq/kg and median 475 MBq (range 65–500 MBq) of [^68Ga]Ga-DOTA-GSGK-A11, corresponding to ~3–23 MBq/kg. PET was performed median ~60 min (60–61min) after injection of [^68Ga]Ga-DOTA-K-A9 (pigs 4–6, Table 1) and ~62 min (62–62 min) after injection of [^68Ga]Ga-DOTA-GSGK-A11 (pigs 7–8, Table 1) in the jugular vein.
(§7) Fluoride-18 was produced via the ^18O (p,n) ^18F nuclear reaction using a cyclotron. The target content was passed through a QMA-light Sep-Pak (Waters, Hedehusene, Denmark) to trap F-18. The solution was washed with 10 mL sterile water for injection (10 mL) to remove any residual [^18O]H2O and then dried with an argon stream. [^18F]NaF was set free by eluting the QMA Sep-Pak with 10 mL NaHCO3 and 10–20 mL air into the product vial. The average injected activity was as median 184 MBq (range 165–196 MBq), corresponding to ~8–10 MBq/kg. The PET was performed ~57 min (33–78 min) after injection of [^18F]NaF (pigs 9–13, Table 1).
(§8) The average injected activity was median 117 MBq (range 109–120 MBq), corresponding to ~5–6 MBq/kg.
as §2, §3, §4

[3] = Whole-body PET biodistribution and excretion of tracers in pigs (MIPs); assay type: in vivo, pig
Text: Reflexes, pulse, oxygen saturation, and body temperature were monitored. […] In the present study, only the whole-body static PET/CT scans are presented.

[4] = system: vascular adhesion protein 1, VAP-1; details: cited from earlier work
Text: The PET tracer [^68Ga]Ga-DOTA-Siglec-9 binds to a protein involved in leukocyte extravasations (vascular adhesion protein 1, VAP-1). Only recently, we have analyzed the dynamic data. […] However, the distribution volume for the uptake of soft tissue infections was elevated, concluding the tracer has a role for soft tissue infections ...

[5] = Static PET/CT tracer uptake in S. aureus induced osteomyelitis lesions, juvenile pig model; details: pig, in vivo, iv, Standard uptake values (SUV) in OM lesions
Text: as §1, §5, §6, §7, §8, §2, §3, §4

[6] = system: osteomyelitis lesions; details: pigs; cited from earlier work
Text: We have previously used ^99mTc-label […] ([^99mTc]Tc-DPD) to examine bone remodeling in pigs. […] We, therefore, moved on to use [^18F]NaF in the present study because [^18F]NaF though acting through similar uptake mechanisms as [^99mTc]Tc-DPD, [^18F]NaF is supposed to have a two-fold higher uptake in bones and a better sensitivity for metastatic osteoblastic metastases.

OC[C@H]1OC(O)[C@H]([18F])[C@@H](O)[C@@H]1O (stereo partly drawn) [[^18F]FDG, [^18F]-fluorodeoxyglucose]
Uptake in hyperplasic medial iliacus lymph node of the infected side compared to the lymph node in the non-infected left hind limb ([1]; pig 12): increased | Change of activity in the margin of the abscess in the static images ([1]; pig 12, static images acquired after 60 min, compared to 10-30 min): increased slightly | Standard uptake values (SUV) in OM lesions ([2]; pig 1, 3 lesions): 4–7.3 | Standard uptake values (SUV) in OM lesions ([2]; pig 2, 4 lesions): 2.3–5.9 | Standard uptake values (SUV) in OM lesions ([2]; pig 3, 5 lesions): 2.9–4.5 | Standard uptake values (SUV) in OM lesions ([2]; pig 4, 2 lesions): 10.5–16.3 | Standard uptake values (SUV) in OM lesions ([2]; pig 5, 3 lesions): 3.4–9 | Standard uptake values (SUV) in OM lesions ([2]; pig 6, 4 lesions): 4–9.2 | Standard uptake values (SUV) in OM lesions ([2]; pig 7, 3 lesions): 3–6.4 | Standard uptake values (SUV) in OM lesions ([2]; pig 8, 2 lesions): 2.4–8 | Standard uptake values (SUV) in OM lesions ([2]; pig 9, 4 lesions): 5.4–5.9 | Standard uptake values (SUV) in OM lesions ([2]; pig 10, 3 lesions): 4.4–5.1 | Standard uptake values (SUV) in OM lesions ([2]; pig 11, 5 lesions): 1–3.9 | Standard uptake values (SUV) in OM lesions ([2]; pig 12, 1 lesion): 6.1 | Standard uptake values (SUV) in OM lesions ([2]; pig 13, 2 lesions): 7.8–10.1 | Standard uptake values (SUV) in OM lesions ([2]; pig 14, 3 lesions): 4–7.8 | Standard uptake values (SUV) in OM lesions ([2]; pig 15, 1 lesion): 3.6 | Number of OM lesions in which the tracer accumulated distinguishably ([2]; static PET ~61 min after injection, pigs 1-15): 45 of the 45

[18F-].[Na+] [[^18F]NaF]
Route of excretion ([3]; pigs, whole-body PET, maximum intensity projections): excreted by the kidneys | Distribution of the tracer in the body outside OM lesions ([3]; pigs, whole-body PET/CT): distributed to the growth zones of the bones | Standard uptake values (SUV) in OM lesions ([2]; pig 9, 4 lesions): 9.2–13.6 | Standard uptake values (SUV) in OM lesions ([2]; pig 10, 3 lesions): 15.2–17 | Standard uptake values (SUV) in OM lesions ([2]; pig 11, 5 lesions): 5.7–19.2 | Standard uptake values (SUV) in OM lesions ([2]; pig 12, 1 lesion): 19.8 | Standard uptake values (SUV) in OM lesions ([2]; pig 13, 2 lesions): 7.8–17.6 | Tracer accumulation in porcine OM lesions (in words) ([2]; static PET, K-A9 9 lesions, GSGK-A11 5, NaF 15, ubiquicidin 12, Siglec-9 19 lesions (early and late images)): no accumulation

CC(C)C[C@@H]1NC(=O)CNC(=O)[C@H](CCCNC(=N)N)NC(=O)[C@H](Cc2c[nH]c3ccccc23)NC(=O)[C@H](CO)NC(=O)[C@H](CC(C)C)NC(=O)[C@H](CO)NC(=O)[C@H](CC(C)C)NC(=O)[C@H](CCCNC(=N)N)NC(=O)[C@H](C)NC(=O)[C@@H](NC(=O)COCCOCCNC(=O)CN2CCN(CC(=O)O)CCN(CC(=O)O)CCN(CC(=O)O)CC2)CSSC[C@@H](C(=O)N2CCC[C@H]2C(=O)N[C@@H](CO)C(=O)N[C@@H](CCCCN)C(N)=O)NC(=O)[C@H](CC(C)C)NC(=O)[C@H]([C@@H](C)O)NC1=O [[^68Ga]Ga-DOTA-Siglec-9, metal not drawn] ({DOTA-AEEA}-CARLSLSWRGLTLCPSK-NH2; disulfide 1-14; N-terminus and C-terminus assumed)
Distribution of the tracer in the body outside OM lesions ([3]; pig, in vivo): accumulated in dorsocaudal parts of both lungs | Uptake in the margin of an inguinal abscess adjacent to the S. aureus inoculation site ([1]; pig 12, images acquired 10 to 30 min after tracer injection): marked | Change of activity in the margin of the abscess in the static images ([1]; pig, in vivo): decreased | Distribution volume for the uptake of soft tissue infections ([4]; pig, in vivo): elevated | Metabolism of the tracer in vivo ([4]; pig, in vivo): metabolized very quickly | Uptake in OM ([4]; pig, in vivo): no increased | Kinetics of uptake ([4]; pigs, modeled with the rev2TCM (4 k-parameters)): reversible kinetics | Tracer accumulation in porcine OM lesions (in words) ([2]; pig, in vivo): no tracer activity | SUV [5]: 1.3 SUV

^99mTc-label methylene diphosphate [[^99mTc]Tc-DPD]
Tracer uptake in the osteomyelitis lesions [6]: did not observe any tracer uptake

Source: paper PMC7570567, “Attempts to Target Staphylococcus aureus Induced Osteomyelitis Bone Lesions in a Juvenile Pig Model by Using Radiotracers” (Molecules, 2020)
